Measured values reported in patent publication US20080274892A1, “Novel Haloalkylsulfonanilide Derivative, Herbicide, and Method of Use Thereof” (priority 2005, published 2008).

Tests used:
bulrush [1] = assay: Test Example 1: herbicidal efficacy on rice paddy weeds pre-emergence; type: in vivo, Scirpus juncoides; settings: dosage 1000 g/ha, 21 days
barnyard glass = assay: Test Example 2: herbicidal efficacy on rice paddy weeds post-emergence; type: in vivo, Echinochloa crus-galli; settings: dosage 1000 g/ha; post-emergence, one leaf stage; 21 days after treatment
In short: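 Efficacy on paddy weeds was scored on a 0 to 4 growth-inhibition scale: 4 for 90%-100%, 3 for 70%-89%, 2 for 40%-69%, 1 for 1%-39% and 0 for 0%. Barnyard glass was grown in clay loam in 75 cm^2 pots under 5 cm of water in a hot house. It was compared with untreated pots 21 days after treatment.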

false pimpernel [2] = assay: as above; type: in vivo, Lindernia pyxidaria; settings: dosage 1000 g/ha; post-emergence, one leaf stage; 21 days after treatment
bulrush [3] = assay: Test Example 4: low dosage test for rice paddy weeds; type: in vivo, Scirpus juncoides; settings: 300 g/ha as an active ingredient; plants treated at the one leaf stage; 21 days after treatment; vs untreated control
In short: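 Compound applied as a formulation at 300 g/ha to one-leaf bulrush grown in flooded clay loam (5 cm water) in a hot house. After 21 days, growth inhibition versus untreated plants rated on a 0–4 scale, with 4 meaning 90–100%.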

[4] = tested on: transplanted paddy rice plant and Bulrush; assay: Test Example 5: selectivity between transplanted paddy rice plant and weeds; type: in vivo; settings: (highest dosage with no phytotoxicity to paddy rice)/(lowest dosage with effective level 4 on Bulrush); rice 3000-100 g/ha, Bulrush 300-10 g/ha; 21 days
In short: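 Scoring ran 21 days after treatment in a hothouse on a 0–4 scale (4 = 90–100%, 3 = 70–89%, 2 = 40–69%, 1 = 1–39%, 0 = none) relative to untreated plants. Post-emergence bulrush received 10, 30, 100 and 300 g/ha active ingredient. Transplanted rice received 100, 300, 1000 and 3000 g/ha to assess crop injury.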

[5] = tested on: paddy rice plant (cultivar: Nihonbare); assay: Test Example 3: phytotoxicity test for transplanted paddy rice plant; type: in vivo; settings: dosage 1000 g/ha; transplanted rice, treated 5 days after transplantation; 21 days after treatment
In short: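 Clay loam soil was placed in a 75 cm^2 plastic pot and flooded to a water depth of 5 cm. Two Nihonbare paddy rice plants at the two-leaf stage were transplanted 1 cm deep and grown in a hot house. After treatment, pots stayed in the hot house for 21 days, and phytotoxicity was then graded against an untreated control.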

false pimpernel [6] = assay: Test Example 1: herbicidal efficacy on rice paddy weeds pre-emergence; type: in vivo, Lindernia pyxidaria; settings: dosage 1000 g/ha, 21 days
bulrush [7] = assay: Test Example 2: herbicidal efficacy on rice paddy weeds post-emergence; type: in vivo, Scirpus juncoides; settings: dosage 1000 g/ha; post-emergence, one leaf stage; 21 days after treatment

Structure (SMILES) | Bulrush pre (herbicidal efficacy grade) (bulrush [1]) | Burnyard grass post (herbicidal efficacy grade) (barnyard glass) | False pimpernel post (herbicidal efficacy grade) (false pimpernel [2]) | Herbicide effect to Bulrush (bulrush [3]) | Selective Index [4] | Phytotoxicity to paddy rice [5] | False pimpernel pre (herbicidal efficacy grade) (false pimpernel [6]) | Bulrush post (herbicidal efficacy grade) (bulrush [7])
C#CCOC(=O)N(c1ccccc1CN1CC(C)(C)OC1=O)S(=O)(=O)C(F)(F)F [1-79] | 4 (90%-100% of herbicidal efficacy or phytotoxicity) | 4 (90%-100% of herbicidal efficacy or phytotoxicity) | 4 (90%-100% of herbicidal efficacy or phytotoxicity) | 4 (90%-100% of herbicidal efficacy or phytotoxicity) | 10 | 2 (40%-69% of herbicidal efficacy or phytotoxicity) | 4 (90%-100% of herbicidal efficacy or phytotoxicity) | 4 (90%-100% of herbicidal efficacy or phytotoxicity)
COC(=O)N(c1ccccc1CN1CC(C)(C)SC1=O)S(=O)(=O)C(F)(F)F [1-186] | 4 (90%-100% of herbicidal efficacy or phytotoxicity) | 4 (90%-100% of herbicidal efficacy or phytotoxicity) | 4 (90%-100% of herbicidal efficacy or phytotoxicity) | 4 (90%-100% of herbicidal efficacy or phytotoxicity) | 10 | 1 (1%-39% of herbicidal efficacy or phytotoxicity) | 4 (90%-100% of herbicidal efficacy or phytotoxicity) | 4 (90%-100% of herbicidal efficacy or phytotoxicity)
CCOC(=O)N(c1ccccc1CN1CC(C)(C2CC2)OC1=O)S(=O)(=O)C(F)(F)F (racemic) [1-111] | 4 (90%-100% of herbicidal efficacy or phytotoxicity) | 4 (90%-100% of herbicidal efficacy or phytotoxicity) | 4 (90%-100% of herbicidal efficacy or phytotoxicity) | 4 (90%-100% of herbicidal efficacy or phytotoxicity) | ≧30 | 2 (40%-69% of herbicidal efficacy or phytotoxicity) | 4 (90%-100% of herbicidal efficacy or phytotoxicity) | 4 (90%-100% of herbicidal efficacy or phytotoxicity)
CC1(C)CN(Cc2ccccc2N(C(=O)Oc2ccccc2)S(=O)(=O)C(F)(F)F)C(=O)O1 [1-85] | 4 (90%-100% of herbicidal efficacy or phytotoxicity) | 4 (90%-100% of herbicidal efficacy or phytotoxicity) | 4 (90%-100% of herbicidal efficacy or phytotoxicity) | 4 (90%-100% of herbicidal efficacy or phytotoxicity) | 10 | 2 (40%-69% of herbicidal efficacy or phytotoxicity) | 4 (90%-100% of herbicidal efficacy or phytotoxicity) | 4 (90%-100% of herbicidal efficacy or phytotoxicity)
CCCOC(=O)N(c1ccccc1CN1CC(CC)(CC)OC1=O)S(=O)(=O)C(F)(F)F [1-98] | 4 (90%-100% of herbicidal efficacy or phytotoxicity) | 4 (90%-100% of herbicidal efficacy or phytotoxicity) | 4 (90%-100% of herbicidal efficacy or phytotoxicity) | 4 (90%-100% of herbicidal efficacy or phytotoxicity) | 10 | 1 (1%-39% of herbicidal efficacy or phytotoxicity) | 4 (90%-100% of herbicidal efficacy or phytotoxicity) | 4 (90%-100% of herbicidal efficacy or phytotoxicity)
CC(C)COC(=O)N(c1ccccc1CN1CC(C)OC1=S)S(=O)(=O)C(F)(F)F (stereo not drawn) [Compound No. 1-22, 5-methyl-3-{2-[N-(isobutoxycarbonyl)-N-(trifluoromethanesulfonyl)amino]benzyl}-2-oxazolidinethione] | 4 (90%-100% of herbicidal efficacy or phytotoxicity) | 4 (90%-100% of herbicidal efficacy or phytotoxicity) | 4 (90%-100% of herbicidal efficacy or phytotoxicity) | 4 (90%-100% of herbicidal efficacy or phytotoxicity) | 33 | 0 (0% of herbicidal efficacy or phytotoxicity) | 4 (90%-100% of herbicidal efficacy or phytotoxicity) | 4 (90%-100% of herbicidal efficacy or phytotoxicity)
CC1(C2CC2)CN(Cc2ccccc2NS(=O)(=O)C(F)(F)F)C(=O)O1 (stereo not drawn) [1-71] | 4 (90%-100% of herbicidal efficacy or phytotoxicity) | 4 (90%-100% of herbicidal efficacy or phytotoxicity) | 4 (90%-100% of herbicidal efficacy or phytotoxicity) | 4 (90%-100% of herbicidal efficacy or phytotoxicity) | 10 | 1 (1%-39% of herbicidal efficacy or phytotoxicity) | 4 (90%-100% of herbicidal efficacy or phytotoxicity) | 4 (90%-100% of herbicidal efficacy or phytotoxicity)
CCCCCOC(=O)N(c1ccccc1CN1CC(C)(CC)OC1=O)S(=O)(=O)C(F)(F)F (stereo not drawn) [1-91] | 4 (90%-100% of herbicidal efficacy or phytotoxicity) | 4 (90%-100% of herbicidal efficacy or phytotoxicity) | 4 (90%-100% of herbicidal efficacy or phytotoxicity) | 4 (90%-100% of herbicidal efficacy or phytotoxicity) | 30 | 3 (70%-89% of herbicidal efficacy or phytotoxicity) | 4 (90%-100% of herbicidal efficacy or phytotoxicity) | 4 (90%-100% of herbicidal efficacy or phytotoxicity)
CCC1(C)CN(Cc2ccccc2N(C(=O)OCC(C)(C)C)S(=O)(=O)C(F)(F)F)C(=O)O1 (racemic) [1-105] | 4 (90%-100% of herbicidal efficacy or phytotoxicity) | 4 (90%-100% of herbicidal efficacy or phytotoxicity) | 4 (90%-100% of herbicidal efficacy or phytotoxicity) | 4 (90%-100% of herbicidal efficacy or phytotoxicity) | 10 | 1 (1%-39% of herbicidal efficacy or phytotoxicity) | 4 (90%-100% of herbicidal efficacy or phytotoxicity) | 4 (90%-100% of herbicidal efficacy or phytotoxicity)
CCOC(=O)N(c1ccccc1CN1CC(C)(C(C)C)OC1=O)S(=O)(=O)C(F)(F)F (racemic) [1-115] | 4 (90%-100% of herbicidal efficacy or phytotoxicity) | 4 (90%-100% of herbicidal efficacy or phytotoxicity) | 4 (90%-100% of herbicidal efficacy or phytotoxicity) | 4 (90%-100% of herbicidal efficacy or phytotoxicity) | 10 | 3 (70%-89% of herbicidal efficacy or phytotoxicity) | 4 (90%-100% of herbicidal efficacy or phytotoxicity) | 4 (90%-100% of herbicidal efficacy or phytotoxicity)
COC(=O)N(c1ccccc1CN1CC(C)(C(C)C)OC1=O)S(=O)(=O)C(F)(F)F (racemic) [1-114] | 4 (90%-100% of herbicidal efficacy or phytotoxicity) | 4 (90%-100% of herbicidal efficacy or phytotoxicity) | 4 (90%-100% of herbicidal efficacy or phytotoxicity) | 4 (90%-100% of herbicidal efficacy or phytotoxicity) | 30 | 2 (40%-69% of herbicidal efficacy or phytotoxicity) | 4 (90%-100% of herbicidal efficacy or phytotoxicity) | 4 (90%-100% of herbicidal efficacy or phytotoxicity)
CCCOC(=O)N(c1ccccc1CN1CC(C)(C2CC2)OC1=O)S(=O)(=O)C(F)(F)F (racemic) [1-112] | 4 (90%-100% of herbicidal efficacy or phytotoxicity) | 4 (90%-100% of herbicidal efficacy or phytotoxicity) | 4 (90%-100% of herbicidal efficacy or phytotoxicity) | 4 (90%-100% of herbicidal efficacy or phytotoxicity) | 30 | 2 (40%-69% of herbicidal efficacy or phytotoxicity) | 4 (90%-100% of herbicidal efficacy or phytotoxicity) | 4 (90%-100% of herbicidal efficacy or phytotoxicity)
